Assay results: patent US12454529B2, “Piperazine cyclic ureas” (SIRONAX LTD., priority 2020, dated 2025)

Test system: HT-29 cells
Assay: HT-29 cell necrosis/necroptosis inhibition (TNF-α + SMAC mimetic + zVAD-FMK; CellTiter-Glo cell viability)
Assay type: cell-based
Settings: Homo sapiens; HT-29 cells, TNF-α 10 ng/ml + SMAC mimetic 6 μM + zVAD-FMK 10 μM, 20 hours; geometric mean, 10 points in duplicate; read-out: EC50 (Cell activity; Necrosis/Necroptosis Inhibitory Activity, Compounds 143-323)
How it was run: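 HT-29 cells (~5,000/well) were switched to FBS-free McCOY's 5A holding TNF-α (10 ng/ml), SMAC mimetic (6 μM) and zVAD-FMK (10 μM), then dosed with a 10-point 1:3 series for 20 h at 37 °C. CellTiter-Glo luminescence gave viability; geometric mean EC50 from duplicates.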

Cc1csc(C2CC=NN2C(=O)N2CCN(c3nc(-c4c(C)cnn4C)ncc3F)CC2)n1 (centres unmarked) [Compound 161, (4-(2-(1,4-dimethyl-1H-pyrazol-5-yl)-5-fluoropyrimidin-4-yl)piperazinyl)(5-(4-methylthiazol-2-yl)-4,5-dihydro-1H-pyrazol-1-yl)methanone] gave an EC50 of 0.1 to 100 nM.
In the case of Cc1ncc(C2CC=NN2C(=O)N2CCN(c3nc(-c4c(C)cnn4C)ncc3F)CC2)s1 (centres unmarked) [Compound 162, (4-(2-(1,4-dimethyl-1H-pyrazol-5-yl)-5-fluoropyrimidin-4-yl)piperazin-1-yl)(5-(2-methylthiazol-5-yl)-4,5-dihydro-1H-pyrazol-1-yl)methanone], the EC50 is reported as 0.1 to 100 nM.
Molecule Cc1[nH]nc(CO)c1-c1nc(N2CCN(C(=O)N3N=CC[C@H]3c3cc(F)cc(C#N)c3)CC2)ncc1F [Compound 163, (S)-3-fluoro-5-(1-(4-(5-fluoro-4-(3-(hydroxymethyl)-5-methyl-1H-pyrazol-4-yl)pyrimidin-2-yl)piperazine-1-carbonyl)-4,5-dihydro-1H-pyrazol-5-yl)benzonitrile] has an EC50 of 0.1 to 100 nM.
For Cc1cc[nH]c(=O)c1-c1nc(N2CCN(C(=O)N3N=CC[C@H]3c3cc(F)cc(C#N)c3)CC2)ncc1F [Compound 164, (S)-3-fluoro-5-(1-(4-(5-fluoro-4-(4-methyl-2-oxo-1,2-dihydropyridin-3-yl)pyrimidin-2-yl)piperazine-1-carbonyl)-4,5-dihydro-1H-pyrazol-5-yl)benzonitrile], the EC50 was 0.1 to 100 nM.
With Cc1c(-c2nc(N3CCN(C(=O)N4N=CC[C@H]4c4cc(F)cc(C#N)c4)CC3)ncc2F)c(CO)nn1C [Compound 165, (S)-3-fluoro-5-(1-(4-(5-fluoro-4-(3-(hydroxymethyl)-1,5-dimethyl-1H-pyrazol-4-yl)pyrimidin-2-yl)piperazine-1-carbonyl)-4,5-dihydro-1H-pyrazol-5-yl)benzonitrile] the EC50 was 0.1 to 100 nM.
In the case of Cn1ncnc1-c1nc(N2CCN(C(=O)N3N=CC[C@H]3c3cc(F)cc(C#N)c3)CC2)ncc1Cl [Compound 166, (S)-3-(1-(4-(5-chloro-4-(1-methyl-1H-1,2,4-triazol-5-yl)pyrimidin-2-yl)piperazine-1-carbonyl)-4,5-dihydro-1H-pyrazol-5-yl)-5-fluorobenzonitrile], the EC50 is reported as 0.1 to 100 nM.
Work on CCn1ncnc1-c1nc(N2CCN(C(=O)N3N=CC[C@H]3c3cc(F)cc(C#N)c3)CC2)ncc1F [Compound 167, (S)-3-(1-(4-(4-(1-ethyl-1H-1,2,4-triazol-5-yl)-5-fluoropyrimidin-2-yl)piperazine-1-carbonyl)-4,5-dihydro-1H-pyrazol-5-yl)-5-fluorobenzonitrile] yielded an EC50 of 0.1 to 100 nM.
CCn1ncnc1-c1nc(N2CCN(C(=O)N3N=CC[C@H]3c3cc(F)cc(C#N)c3)CC2)ncc1Cl [Compound 168, (S)-3-(1-(4-(5-chloro-4-(1-ethyl-1H-1,2,4-triazol-5-yl)pyrimidin-2-yl)piperazine-1-carbonyl)-4,5-dihydro-1H-pyrazol-5-yl)-5-fluorobenzonitrile] showed an EC50 of 0.1 to 100 nM.
For Cn1nc(CF)nc1-c1ccnc(N2CCN(C(=O)N3N=CC[C@H]3c3cc(F)cc(C#N)c3)CC2)n1 [Compound 169, (S)-3-fluoro-5-(1-(4-(4-(3-(fluoromethyl)-1-methyl-1H-1,2,4-triazol-5-yl)pyrimidin-2-yl)piperazine-1-carbonyl)-4,5-dihydro-1H-pyrazol-5-yl)benzonitrile], the EC50 was 0.1 to 100 nM.
Cn1nc(CF)nc1-c1nc(N2CCN(C(=O)N3N=CC[C@H]3c3cc(F)cc(C#N)c3)CC2)ncc1F [Compound 170, (S)-3-fluoro-5-(1-(4-(5-fluoro-4-(3-(fluoromethyl)-1-methyl-1H-1,2,4-triazol-5-yl)pyrimidin-2-yl)piperazine-1-carbonyl)-4,5-dihydro-1H-pyrazol-5-yl)benzonitrile] showed an EC50 of 0.1 to 100 nM.
Cn1nc(CO)nc1-c1ccnc(N2CCN(C(=O)N3N=CC[C@H]3c3cc(F)cc(C#N)c3)CC2)n1 [Compound 171, (S)-3-fluoro-5-(1-(4-(4-(3-(hydroxymethyl)-1-methyl-1H-1,2,4-triazol-5-yl)pyrimidin-2-yl)piperazine-1-carbonyl)-4,5-dihydro-1H-pyrazol-5-yl)benzonitrile] gave an EC50 of 0.1 to 100 nM.
Cc1nnc(-c2nc(N3CCN(C(=O)N4N=CC[C@H]4c4cc(F)cc(C#N)c4)CC3)ccc2F)s1 [Compound 172, (S)-3-fluoro-5-(1-(4-(5-fluoro-6-(5-methyl-1,3,4-thiadiazol-2-yl)pyridin-2-yl)piperazine-1-carbonyl)-4,5-dihydro-1H-pyrazol-5-yl)benzonitrile] was tested, and the EC50 was 0.1 to 100 nM.
For Cc1nnc(-c2nc(N3CCN(C(=O)N4N=CC[C@H]4c4cncc(F)c4)CC3)ccc2F)s1 [Compound 173, (S)-(4-(5-fluoro-6-(5-methyl-1,3,4-thiadiazol-2-yl)pyridin-2-yl)piperazin-1-yl)(5-(5-fluoropyridin-3-yl)-4,5-dihydro-1H-pyrazol-1-yl)methanone], the EC50 was 0.1 to 100 nM.
In the case of Cn1nc(CO)nc1-c1nc(N2CCN(C(=O)N3N=CC[C@H]3c3cncc(F)c3)CC2)ncc1F [Compound 174, (S)-(4-(5-fluoro-4-(3-(hydroxymethyl)-1-methyl-1H-1,2,4-triazol-5-yl)pyrimidin-2-yl)piperazin-1-yl)(5-(5-fluoropyridin-3-yl)-4,5-dihydro-1H-pyrazol-1-yl)methanone], the EC50 is reported as 0.1 to 100 nM.
Cn1ncnc1-c1ccc(F)c(N2CCN(C(=O)N3N=CC[C@H]3c3cc(F)cc(F)c3)CC2)n1 [Compound 175, (S)-(5-(3,5-difluorophenyl)-4,5-dihydro-1H-pyrazol-1-yl)(4-(3-fluoro-6-(1-methyl-1H-1,2,4-triazol-5-yl)pyridin-2-yl)piperazin-1-yl)methanone] was tested, and the EC50 was 0.1 to 100 nM.
Work on Cn1ncnc1-c1ccc(F)c(N2CCN(C(=O)N3N=CC[C@H]3c3cc(F)cc(C#N)c3)CC2)n1 [Compound 176, (S)-3-fluoro-5-(1-(4-(3-fluoro-6-(1-methyl-1H-1,2,4-triazol-5-yl)pyridin-2-yl)piperazine-1-carbonyl)-4,5-dihydro-1H-pyrazol-5-yl)benzonitrile] yielded an EC50 of 0.1 to 100 nM.
Work on Cn1cnc(-c2ccc(F)c(N3CCN(C(=O)N4N=CC[C@H]4c4cc(F)cc(C#N)c4)CC3)n2)n1 [Compound 177, (S)-3-fluoro-5-(1-(4-(3-fluoro-6-(1-methyl-1H-1,2,4-triazol-3-yl)pyridin-2-yl)piperazine-1-carbonyl)-4,5-dihydro-1H-pyrazol-5-yl)benzonitrile] yielded an EC50 of 100 to 1000 nM.
Cc1nnc(-c2nc(N3CCN(C(=O)N4N=CC[C@H]4c4cc(F)cc(F)c4)CC3)ncc2F)n1C [Compound 178, (S)-(5-(3,5-difluorophenyl)-4,5-dihydro-1H-pyrazol-1-yl)(4-(4-(4,5-dimethyl-4H-1,2,4-triazol-3-yl)-5-fluoropyrimidin-2-yl)piperazin-1-yl)methanone] was tested, and the EC50 was 0.1 to 100 nM.
Work on Cc1nnc(-c2nc(N3CCN(C(=O)N4N=CC[C@H]4c4cc(F)cc(C#N)c4)CC3)ncc2F)n1C [Compound 179, (S)-3-(1-(4-(4-(4,5-dimethyl-4H-1,2,4-triazol-3-yl)-5-fluoropyrimidin-2-yl)piperazine-1-carbonyl)-4,5-dihydro-1H-pyrazol-5-yl)-5-fluorobenzonitrile] yielded an EC50 of 0.1 to 100 nM.
CCn1c(C)nn(-c2nc(N3CCN(C(=O)N4N=CC[C@H]4c4cc(F)cc(C#N)c4)CC3)ncc2F)c1=O [Compound 181, (S)-3-(1-(4-(4-(4-ethyl-3-methyl-5-oxo-4,5-dihydro-1H-1,2,4-triazol-1-yl)-5-fluoropyrimidin-2-yl)piperazine-1-carbonyl)-4,5-dihydro-1H-pyrazol-5-yl) fluorobenzonitrile] gave an EC50 of 0.1 to 100 nM.
CCn1nc(C)n(-c2nc(N3CCN(C(=O)N4N=CC[C@H]4c4cc(F)cc(F)c4)CC3)ncc2F)c1=O [Compound 182, (S)-4-(2-(4-(5-(3,5-difluorophenyl)-4,5-dihydro-1H-pyrazole-1-carbonyl)piperazin-1-yl)-5-fluoropyrimidin-4-yl)-2-ethyl-5-methyl-2,4-dihydro-3H-1,2,4-triazol-3-one] gave an EC50 of 0.1 to 100 nM.
Molecule CCn1nc(C)n(-c2nc(N3CCN(C(=O)N4N=CC[C@H]4c4cc(F)cc(C#N)c4)CC3)ncc2F)c1=O [Compound 183, (S)-3-(1-(4-(4-(1-ethyl-3-methyl-5-oxo-1,5-dihydro-4H-1,2,4-triazol-4-yl)-5-fluoropyrimidin-2-yl)piperazine-1-carbonyl)-4,5-dihydro-1H-pyrazol-5-yl)-5-fluorobenzonitrile] has an EC50 of 0.1 to 100 nM.
In the case of Cc1nn2c(c1-c1nc(N3CCN(C(=O)N4N=CC[C@H]4c4cc(F)cc(C#N)c4)CC3)ncc1F)CCC2 [Compound 184, (S)-3-fluoro-5-(1-(4-(5-fluoro-4-(2-methyl-5,6-dihydro-4H-pyrrolo[1,2-b]pyrazol-3-yl)pyrimidin-2-yl)piperazine-1-carbonyl)-4,5-dihydro-1H-pyrazol-5-yl)benzonitrile], the EC50 is reported as 0.1 to 100 nM.
Cc1cnn(C)c1-c1sc(N2CCN(C(=O)N3N=CC[C@H]3c3cc(F)cc(F)c3)CC2)nc1Cl [Compound 185, (S)-(4-(4-chloro-5-(1,4-dimethyl-1H-pyrazol-5-yl)thiazol-2-yl)piperazin-1-yl)(5-(3,5-difluorophenyl)-4,5-dihydro-1H-pyrazol-1-yl)methanone] was tested, and the EC50 was 0.1 to 100 nM.
Cc1nnc(-c2nc(N3CCN(C(=O)N4N=CC[C@H]4c4cc(F)cc(F)c4)CC3)ncc2F)o1 [Compound 187, (S)-(5-(3,5-difluorophenyl)-4,5-dihydro-1H-pyrazol-1-yl)(4-(5-fluoro-4-(5-methyl-1,3,4-oxadiazol-2-yl)pyrimidin-2-yl)piperazin-1-yl)methanone] gave an EC50 of 0.1 to 100 nM.
Cc1nnc(-c2nc(N3CCN(C(=O)N4N=CC[C@H]4c4cc(F)cc(C#N)c4)CC3)ncc2F)o1 [Compound 188, (S)-3-fluoro-5-(1-(4-(5-fluoro-4-(5-methyl-1,3,4-oxadiazol-2-yl)pyrimidin-2-yl)piperazine-1-carbonyl)-4,5-dihydro-1H-pyrazol-5-yl)benzonitrile] was tested, and the EC50 was 0.1 to 100 nM.
